The numbers were not newly measured in patent US20080027034A1, “Ciclesonide and Syk Inhibitor Combination and Method of Use Thereof” (priority 2004, published 2008), which cites them from elsewhere.

The conditions of series [1]: compared with budesonide.
Experiment in series [2]: not given
The source holds these as a separate data set.

As for `CC(C)C(=O)OCC(=O)[C@@]12O[C@H](C3CCCCC3)O[C@@H]1C[C@H]1[C@@H]3CCC4=CC(=O)C=C[C@]4(C)[C@H]3[C@@H](O)C[C@@]12C` [Ciclesonide, [11β,16α(R)]-16,17-[(Cyclohexylmethylen)bis(oxy)]-11-hydroxy-21-(2-methyl-1-oxoprop-oxy)pregna-1,4-dien-3,20-dione], the “anti-inflammatory activity relative to budesonide” value in series [1] is “higher”. For the same compound, the “systemic activity relative to budesonide” value (compared with budesonide) is reported as “three times lower”. Further, for the setting “in vivo”, the systemic activity entry was “low”. The “metabolism by liver oxidases” value in series [2] (liver oxidases) was “very high”. In series [2] (lungs), the “concentration of the drug in the lungs” value is listed as “high”. In addition, the “absorption after oral administration” value in series [2] (oral administration) is “only moderately absorbed”. Besides, in series [2] (plasma), the plasma half-life entry was “low”.
